Measurements taken from patent US20100324036A1, “SUBSTITUTED IMIDAZOPYRIDINE DERIVATIVES AS MELANOCORTIN-4 RECEPTOR ANTAGONISTS” (SANTHERA PHARMACEUTICALS (SCHWEIZ) AG, priority 2007, published 2010).

Tests used:
hMC-4R [1] = target: T1, hMC-4R (Homo sapiens, UniProt P32245); experiment: Membrane binding assay, competition with fluorescence labeled NDP-alpha-MSH (fluorescence polarization); parameters: expressed in transfected cells; host or cells: HEK293 cells (membrane preparations); conditions: HEK293 cell membrane preparations
T1 sequence (P32245 whole entry): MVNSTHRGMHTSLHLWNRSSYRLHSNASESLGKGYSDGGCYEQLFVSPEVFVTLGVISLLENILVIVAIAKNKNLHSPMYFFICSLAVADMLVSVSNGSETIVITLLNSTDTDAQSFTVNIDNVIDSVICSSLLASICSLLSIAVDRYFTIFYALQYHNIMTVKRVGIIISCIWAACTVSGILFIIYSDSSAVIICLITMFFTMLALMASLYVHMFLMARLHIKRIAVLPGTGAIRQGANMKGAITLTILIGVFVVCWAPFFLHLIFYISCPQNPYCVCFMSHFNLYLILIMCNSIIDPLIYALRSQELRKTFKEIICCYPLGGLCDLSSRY

hMC-4R [2] = target: T1, hMC-4R; experiment: Functional assay, cAMP formation in HEK293 membrane preparations (fluorescence polarization)

Structure (SMILES) | IC50 (hMC-4R [1]) | EC50 (hMC-4R [2])
CC(C)CCN(CCC(C)C)C(=O)c1ccc2nc(C(=O)N3CCN(C)CC3)c(CCCN3CCCC3)n2c1 [Example 29] | 100 to 1000 nM | 
CNC(=O)c1nc2ccc(C(=O)N(CCC(C)C)CCC(C)C)cn2c1CCCN1CCCC1 [Example 3] | 100 to 1000 nM | 
COc1cccc(N(C)c2nc3ccc(C(=O)N(CCC(C)C)CCC(C)C)cn3c2CCCN2CCCC2)c1 [Example 23] | 100 to 1000 nM | 
CCNC(=O)c1nc2ccc(C(=O)N(CCC(C)C)CCC(C)C)cn2c1CCCN1CCCC1 [Example 4] | 100 to 1000 nM | 
CC(C)CCN(CCC(C)C)C(=O)c1ccc2nc(-c3n[nH]c(=O)n3C)c(CCCN3CCCC3)n2c1 [Example 13] | 100 to 1000 nM | 
CC(C)CCN(CCC(C)C)C(=O)c1ccc2nc(C3CC3)c(CCCN3CCCC3)n2c1 [Example 6] | 100 to 1000 nM | 
CC(C)CCN(CCC(C)C)C(=O)c1ccc2nc(C(=O)N3CCCC3)c(CCCN3CCCC3)n2c1 [Example 2] | 100 to 1000 nM | 
CC(C)CCN(CCC(C)C)C(=O)c1ccc2nc(CCCN(C)C)c(CCCN3CCCC3)n2c1 [Example 27] | < 100 nM | 0.1 to 1 µM
CC(C)CCN(CCC(C)C)C(=O)c1ccc2nc(C(=O)OC(C)C)c(CCCN3CCCC3)n2c1 [Example 7] | 100 to 1000 nM | 0.1 to 1 µM
CC(C)CCN(CCC(C)C)C(=O)c1ccc2nc(C(=O)OCC(C)C)c(CCCN3CCCC3)n2c1 [Example 20] | < 100 nM | 
CC(C)CCN(CCC(C)C)C(=O)c1ccc2nc(CNc3ccc4c(c3)OCO4)c(CCCN3CCCC3)n2c1 [Example 22] | < 100 nM | 
CC(C)CCN(CCC(C)C)C(=O)c1ccc2nc(CCCNC(=O)OC(C)(C)C)c(CCCN3CCCC3)n2c1 [Example 26] | < 100 nM | 
Cc1noc(-c2nc3ccc(C(=O)N(CCC(C)C)CCC(C)C)cn3c2CCCN2CCCC2)n1 [Example 10] | < 100 nM | < 0.1 µM
CC(C)CCN(CCC(C)C)C(=O)c1ccc2nc(-c3nc(C(C)(C)O)no3)c(CCCN3CCCC3)n2c1 [Example 11] | 100 to 1000 nM | 

The next lines start with the values.

IC50 (hMC-4R [1]) | EC50 (hMC-4R [2]) | Structure (SMILES)
100 to 1000 nM | 0.1 to 1 µM | CC(C)CCN(CCC(C)C)C(=O)c1ccc2nc(-c3nc(C(C)(C)O)no3)c(CCCN(C)C)n2c1 [Example 18]
100 to 1000 nM |  | CCOC(=O)c1nc2ccc(C(=O)N(CCC(C)C)CCC(C)C)cn2c1CCCN(C)C [Example 15]
100 to 1000 nM |  | COCc1noc(-c2nc3ccc(C(=O)N(CCC(C)C)CCC(C)C)cn3c2CCCN(C)C)n1 [Example 16]
100 to 1000 nM |  | CC(C)CCN(CCC(C)C)C(=O)c1ccc2nc(N(C)c3ccccn3)c(CCCN3CCCC3)n2c1 [Example 21]
100 to 1000 nM |  | CC(C)CCN(CCC(C)C)C(=O)c1ccc2nc(CO)c(CCCN3CCCC3)n2c1 [Example 5]
< 100 nM |  | CC(C)CCN(CCC(C)C)C(=O)c1ccc2nc(-c3ccc4nccn4c3)c(CCCN3CCCC3)n2c1 [Example 24]
< 100 nM |  | CC(C)CCN(CCC(C)C)C(=O)c1ccc2nc(CCCN)c(CCCN3CCCC3)n2c1 [Example 28]
< 100 nM |  | CCOC(=O)c1nc2ccc(C(=O)N(CCC(C)C)CCC(C)C)cn2c1CCCN1CCCC1 [Example 1]
100 to 1000 nM |  | CCOC(=O)CCc1nc2ccc(C(=O)N(CCC(C)C)CCC(C)C)cn2c1CCCN(C)C [Example 14]
< 100 nM |  | CC(C)CCN(CCC(C)C)C(=O)c1ccc2nc(-c3nc(C4CC4)no3)c(CCCN3CCCC3)n2c1 [Example 12]
> 1000 nM | 0.1 to 1 µM | CC(C)CCN(CCC(C)C)C(=O)c1ccc2nc(C#N)c(CCCN3CCCC3)n2c1 [Example 8]
< 100 nM | 0.1 to 1 µM | COCc1noc(-c2nc3ccc(C(=O)N(CCC(C)C)CCC(C)C)cn3c2CCCN2CCCC2)n1 [Example 9]
100 to 1000 nM |  | Cc1noc(-c2nc3ccc(C(=O)N(CCC(C)C)CCC(C)C)cn3c2CCCN(C)C)n1 [Example 17]
< 100 nM |  | COCCOC(=O)c1nc2ccc(C(=O)N(CCC(C)C)CCC(C)C)cn2c1CCCN1CCCC1 [Example 19]
